# Test results as given in PubChem BioAssay (NCI).
#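 Five concentrations, 48 hours, 96-well plates. TGI marks complete inhibition of growth.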
# Tested on: 786-0 renal
# Assay: NCI anticancer screen, dose series, 48 h
row,Compound,TGI
1,CN(N=O)C(=O)NNC(=O)N(C)N=O,95.1 µM
2,CC1=C(C)C2(C#N)C(=O)N3C(=NC(c4ccccc4)NC3c3ccccc3)C2(C#N)C(c2ccccc2)N1 (stereo not drawn),> 100 µM
3,Cc1cccc(-n2c(C)nc3ccc(NC(=S)Nc4ccccc4)cc3c2=O)c1,> 100 µM
4,COc1ccc(-c2ncnc(-c3ccc(OC)c(OC)c3)n2)cc1OC,> 100 µM
5,CN(C)C(=O)Oc1ccc[n+](C)c1,> 100 µM

# Tested on: A498 renal
# Assay: NCI anticancer screen, dose series, 48 h
row,Compound,TGI
1,CN(N=O)C(=O)NNC(=O)N(C)N=O,> 100 µM
2,CC1=C(C)C2(C#N)C(=O)N3C(=NC(c4ccccc4)NC3c3ccccc3)C2(C#N)C(c2ccccc2)N1 (stereo not drawn),> 100 µM
3,Cc1cccc(-n2c(C)nc3ccc(NC(=S)Nc4ccccc4)cc3c2=O)c1,> 100 µM
4,COc1ccc(-c2ncnc(-c3ccc(OC)c(OC)c3)n2)cc1OC,> 100 µM
5,CN(C)C(=O)Oc1ccc[n+](C)c1,> 100 µM

# Tested on: A549 NSCLC
# Assay: NCI anticancer screen, dose series, 48 h
row,Compound,TGI
1,CN(N=O)C(=O)NNC(=O)N(C)N=O,> 100 µM
2,CC1=C(C)C2(C#N)C(=O)N3C(=NC(c4ccccc4)NC3c3ccccc3)C2(C#N)C(c2ccccc2)N1 (stereo not drawn),> 100 µM
3,COc1ccc(-c2ncnc(-c3ccc(OC)c(OC)c3)n2)cc1OC,> 100 µM

# Tested on: ACHN renal
# Assay: NCI anticancer screen, dose series, 48 h
row,Compound,TGI
1,CN(N=O)C(=O)NNC(=O)N(C)N=O,> 100 µM
2,CC1=C(C)C2(C#N)C(=O)N3C(=NC(c4ccccc4)NC3c3ccccc3)C2(C#N)C(c2ccccc2)N1 (stereo not drawn),> 100 µM
3,Cc1cccc(-n2c(C)nc3ccc(NC(=S)Nc4ccccc4)cc3c2=O)c1,> 100 µM
4,COc1ccc(-c2ncnc(-c3ccc(OC)c(OC)c3)n2)cc1OC,> 100 µM
5,CN(C)C(=O)Oc1ccc[n+](C)c1,> 100 µM

# Tested on: BT-549 breast
# Assay: NCI anticancer screen, dose series, 48 h
row,Compound,TGI
1,CN(N=O)C(=O)NNC(=O)N(C)N=O,> 100 µM
2,CC1=C(C)C2(C#N)C(=O)N3C(=NC(c4ccccc4)NC3c3ccccc3)C2(C#N)C(c2ccccc2)N1 (stereo not drawn),> 100 µM
3,Cc1cccc(-n2c(C)nc3ccc(NC(=S)Nc4ccccc4)cc3c2=O)c1,> 100 µM
4,COc1ccc(-c2ncnc(-c3ccc(OC)c(OC)c3)n2)cc1OC,> 100 µM
5,CN(C)C(=O)Oc1ccc[n+](C)c1,> 100 µM

# Tested on: CAKI-1 renal
# Assay: NCI anticancer screen, dose series, 48 h
row,Compound,TGI
1,CN(N=O)C(=O)NNC(=O)N(C)N=O,> 100 µM
2,CC1=C(C)C2(C#N)C(=O)N3C(=NC(c4ccccc4)NC3c3ccccc3)C2(C#N)C(c2ccccc2)N1 (stereo not drawn),> 100 µM
3,Cc1cccc(-n2c(C)nc3ccc(NC(=S)Nc4ccccc4)cc3c2=O)c1,> 100 µM
4,COc1ccc(-c2ncnc(-c3ccc(OC)c(OC)c3)n2)cc1OC,> 100 µM
5,CN(C)C(=O)Oc1ccc[n+](C)c1,> 100 µM

# Tested on: CCRF-CEM leukemia
# Assay: NCI anticancer screen, dose series, 48 h
row,Compound,TGI
1,CN(N=O)C(=O)NNC(=O)N(C)N=O,> 100 µM
2,CC1=C(C)C2(C#N)C(=O)N3C(=NC(c4ccccc4)NC3c3ccccc3)C2(C#N)C(c2ccccc2)N1 (stereo not drawn),> 100 µM
3,COc1ccc(-c2ncnc(-c3ccc(OC)c(OC)c3)n2)cc1OC,> 100 µM

# Tested on: COLO 205 colon
# Assay: NCI anticancer screen, dose series, 48 h
row,Compound,TGI
1,CN(N=O)C(=O)NNC(=O)N(C)N=O,> 100 µM
2,CC1=C(C)C2(C#N)C(=O)N3C(=NC(c4ccccc4)NC3c3ccccc3)C2(C#N)C(c2ccccc2)N1 (stereo not drawn),> 100 µM
3,Cc1cccc(-n2c(C)nc3ccc(NC(=S)Nc4ccccc4)cc3c2=O)c1,> 100 µM
4,COc1ccc(-c2ncnc(-c3ccc(OC)c(OC)c3)n2)cc1OC,> 100 µM
5,CN(C)C(=O)Oc1ccc[n+](C)c1,> 100 µM

# Tested on: DU-145 prostate
# Assay: NCI anticancer screen, dose series, 48 h
row,Compound,TGI
1,CN(N=O)C(=O)NNC(=O)N(C)N=O,> 100 µM
2,CC1=C(C)C2(C#N)C(=O)N3C(=NC(c4ccccc4)NC3c3ccccc3)C2(C#N)C(c2ccccc2)N1 (stereo not drawn),> 100 µM
3,Cc1cccc(-n2c(C)nc3ccc(NC(=S)Nc4ccccc4)cc3c2=O)c1,> 100 µM
4,COc1ccc(-c2ncnc(-c3ccc(OC)c(OC)c3)n2)cc1OC,> 100 µM
5,CN(C)C(=O)Oc1ccc[n+](C)c1,> 100 µM

# Tested on: EKVX NSCLC
# Assay: NCI anticancer screen, dose series, 48 h
row,Compound,TGI
1,CN(N=O)C(=O)NNC(=O)N(C)N=O,> 100 µM
2,CC1=C(C)C2(C#N)C(=O)N3C(=NC(c4ccccc4)NC3c3ccccc3)C2(C#N)C(c2ccccc2)N1 (stereo not drawn),> 100 µM
3,Cc1cccc(-n2c(C)nc3ccc(NC(=S)Nc4ccccc4)cc3c2=O)c1,> 100 µM
4,COc1ccc(-c2ncnc(-c3ccc(OC)c(OC)c3)n2)cc1OC,> 100 µM
5,CN(C)C(=O)Oc1ccc[n+](C)c1,> 100 µM

# Tested on: HCC-2998 colon
# Assay: NCI anticancer screen, dose series, 48 h
row,Compound,TGI
1,CN(N=O)C(=O)NNC(=O)N(C)N=O,> 100 µM
2,CC1=C(C)C2(C#N)C(=O)N3C(=NC(c4ccccc4)NC3c3ccccc3)C2(C#N)C(c2ccccc2)N1 (stereo not drawn),> 100 µM
3,Cc1cccc(-n2c(C)nc3ccc(NC(=S)Nc4ccccc4)cc3c2=O)c1,78.1 µM
4,COc1ccc(-c2ncnc(-c3ccc(OC)c(OC)c3)n2)cc1OC,> 100 µM
5,CN(C)C(=O)Oc1ccc[n+](C)c1,> 100 µM

# Tested on: HCT-116 colon
# Assay: NCI anticancer screen, dose series, 48 h
row,Compound,TGI
1,CN(N=O)C(=O)NNC(=O)N(C)N=O,> 100 µM
2,CC1=C(C)C2(C#N)C(=O)N3C(=NC(c4ccccc4)NC3c3ccccc3)C2(C#N)C(c2ccccc2)N1 (stereo not drawn),> 100 µM
3,Cc1cccc(-n2c(C)nc3ccc(NC(=S)Nc4ccccc4)cc3c2=O)c1,> 100 µM
4,COc1ccc(-c2ncnc(-c3ccc(OC)c(OC)c3)n2)cc1OC,> 100 µM
5,CN(C)C(=O)Oc1ccc[n+](C)c1,> 100 µM

# Tested on: HCT-15 colon
# Assay: NCI anticancer screen, dose series, 48 h
row,Compound,TGI
1,CN(N=O)C(=O)NNC(=O)N(C)N=O,> 100 µM
2,CC1=C(C)C2(C#N)C(=O)N3C(=NC(c4ccccc4)NC3c3ccccc3)C2(C#N)C(c2ccccc2)N1 (stereo not drawn),> 100 µM
3,Cc1cccc(-n2c(C)nc3ccc(NC(=S)Nc4ccccc4)cc3c2=O)c1,> 100 µM
4,CN(C)C(=O)Oc1ccc[n+](C)c1,> 100 µM

# Tested on: HL-60(TB) leukemia
# Assay: NCI anticancer screen, dose series, 48 h
row,Compound,TGI
1,CN(N=O)C(=O)NNC(=O)N(C)N=O,> 100 µM
2,CC1=C(C)C2(C#N)C(=O)N3C(=NC(c4ccccc4)NC3c3ccccc3)C2(C#N)C(c2ccccc2)N1 (stereo not drawn),> 100 µM
3,Cc1cccc(-n2c(C)nc3ccc(NC(=S)Nc4ccccc4)cc3c2=O)c1,> 100 µM
4,COc1ccc(-c2ncnc(-c3ccc(OC)c(OC)c3)n2)cc1OC,> 100 µM
5,CN(C)C(=O)Oc1ccc[n+](C)c1,> 100 µM

# Tested on: HOP-62 NSCLC
# Assay: NCI anticancer screen, dose series, 48 h
row,Compound,TGI
1,CN(N=O)C(=O)NNC(=O)N(C)N=O,> 100 µM
2,CC1=C(C)C2(C#N)C(=O)N3C(=NC(c4ccccc4)NC3c3ccccc3)C2(C#N)C(c2ccccc2)N1 (stereo not drawn),> 100 µM
3,Cc1cccc(-n2c(C)nc3ccc(NC(=S)Nc4ccccc4)cc3c2=O)c1,> 100 µM
